Assay results: patent US20240368174A1, “Antiviral Heterocyclic Compounds” (Enanta Pharmaceuticals, Inc., priority 2023, published 2024)

These compounds were tested on HMPV clinical isolate A2 strain TN 94-49 (assay: HMPV antiviral assay, Method 1 (LLC-MK2 cells, ATP-Lite)). Conditions: human metapneumovirus, hMPV A2 TN/94-49, LLC-MK2 cells.
Assay type: cell-based
Experimental: In vitro HMPV antiviral activity was evaluated using the clinical isolate A2 strain TN 94-49 (obtained from Dr. John Williams, Vanderbilt University, Tennessee) and LLC-MK2 cells (ATCC #CCL-7), an immortalized kidney epithelial cell line from Macaca mulatta. Compounds were resuspended in dimethyl sulfoxide (DMSO) at 10 mM, serially diluted and added to a 384-well source plate. Subsequently, the compounds were diluted and transferred onto 384-well assay plates using the Echo-650 automated liquid handling system (Beckman Coulter, Indiana). The test compounds were assessed in duplicate at a top concentration of 2 μM followed by 2.5-fold serial dilutions to give a total of 10 concentration points. DMSO control wells were also included on the assay plates and were either infected or not, acting as positive and negative controls. A2 TN 94-49 virus infections were performed in-suspension with LLC-MK2 cells. The cells were washed twice with PBS and removed from the cell-culture flask with 0.25% trypsin-EDTA (Thermo Fisher Scientific, MA). The trypsin-EDTA was inactivated by resuspending in 2% fetal bovine serum (FBS) and OptiMEM (ThermoFisher Scientific, MA) containing 1% penicillin-streptomycin. Cells were pelleted by centrifuging for 5 minutes at 800 rpm, the supernatant was removed, and cells were re-suspended and washed in PBS plus 100 μg/mL CaCl2). This step was performed twice. Cells were then re-suspended in serum-free (SF)-OptiMEM containing 4 μg/mL TPCK-Trypsin (Sigma Aldrich, MO), 1% penicillin-streptomycin (ThermoFisher Scientific, MA) and 100 μg/mL CaCl2). Cells were counted and seeded at a density of 5,000 cells/well, 12.5 μL/well. Virus infections were done at a multiplicity of infection (MOI) of 0.005 with 12.5 μL added per well. Virus infections were performed in infection media which contained SF-OptiMEM, 100 μg/mL CaCl2) and 1% penicillin-streptomycin. HMPV viral stocks are suspended in infection media+5% glycerol, thus an equal volume of infection media+5% glycerol was added to uninfected wells to equalize the final % glycerol across all wells of the assay plate. The final concentration of TPCK-trypsin was 2 μg/mL. The assay plates were incubated at 37° C., 5% CO2 for 7 days. After 7 days incubation, 12.5 μL of ATP-Lite (PerkinElmer, MA) was added to each well and the raw luminescence values were determined using the Envision 2104 (Perkin Elmer, MA). The average of the raw luminescence values for the cells and virus only positive control wells was subtracted from all conditions tested and the percent cell health was determined by dividing these values by the average of the cells only negative control wells. EC50 values were then calculated by non-linear regression using a four-parameter curve logistic equation. The curve fit model employed was XLFit Dose Response One Site Model 200: y=(A+(B/(1+((x/C)^D)))), where A is the minimum y value, B is the maximum y value, C is the log EC50 value, and D is the slope factor.

| EC50 | Compound |
| --- | --- |
| < 500 nM | C[C@]1(C(N)=O)COc2c1cc([C@@](O)(CNC(=O)c1cc(OC3CC3)c3nn(C4CC4)cc3c1)C1CC1)nc2-c1cc(Cl)c(F)cc1F [Example 2] |
| < 500 nM | C[C@]1(C(N)=O)COc2c1cc([C@@](O)(CNC(=O)c1cc(OC(F)F)c3nn(C4CC4)cc3c1)C1CC1)nc2-c1cc(F)c(F)cc1F [Example 6] |
| < 500 nM | COc1cc(C(=O)NC[C@](O)(c2cc3c(c(-c4cc(F)c(F)cc4F)n2)OC[C@]3(C)C(N)=O)C2CC(F)(F)C2)cc2cn(C3CC3)nc12 [Example 31] |
| > 500 nM | COc1cc(C(=O)NC[C@](O)(c2cc3c(c(-c4cccc(SC(F)(F)F)c4)n2)OC[C@]3(C)C(N)=O)C2CC2)cc2cn(C3CC3)nc12 [Example 36] |
| < 500 nM | C[C@]1(C(N)=O)COc2c1cc([C@@](O)(CNC(=O)c1cc(OC(F)F)c3nn(C4CC4)cc3c1)C1CC1)nc2-c1ccc(F)c(F)c1Cl [Example 39] |
| < 500 nM | C[C@]1(C(N)=O)COc2c1cc([C@@](O)(CNC(=O)c1cc(OC(F)F)c3nn(C4CC4)cc3c1)C1CC1)nc2-c1ccc(F)c(Cl)c1F [Example 40] |
| > 500 nM | COc1cc(C(=O)NC[C@](O)(c2cc3c(c(-c4cc(Cl)cc(C)c4F)n2)OC[C@]3(C)C(N)=O)C2CC2)cc2cn(C3CC3)nc12 [Example 47] |
| > 500 nM | COc1cc(C(=O)NC[C@](O)(c2cc3c(c(-c4ccc5ccsc5c4)n2)OC[C@]3(C)C(N)=O)C2CC2)cc2cn(C3CC3)nc12 [Example 48] |
| > 500 nM | COc1cc(C(=O)NC[C@](O)(c2cc3c(c(-c4cc(C)cc(F)c4F)n2)OC[C@]3(C)C(N)=O)C2CC2)cc2cn(C3CC3)nc12 [Example 49] |
| > 500 nM | COc1cc(C(=O)NC[C@](O)(c2cc3c(c(-c4cc(Cl)c(C)cc4F)n2)OC[C@]3(C)C(N)=O)C2CC2)cc2cn(C3CC3)nc12 [Example 51] |
| < 500 nM | COc1cc(C(=O)NC[C@](O)(c2cc3c(c(-c4cc(C(F)(F)F)ccc4C)n2)OC[C@]3(C)C(N)=O)C2CC2)cc2cn(C3CC3)nc12 [Example 53] |
| > 500 nM | COc1cc(C(=O)NC[C@](O)(c2cc3c(c(-c4cccc(S(F)(F)(F)(F)F)c4)n2)OC[C@]3(C)C(N)=O)C(F)(F)F)cc2cn(C3CC3)nc12 [Example 54] |
| > 500 nM | COc1cc(C(=O)NC[C@](O)(c2cc3c(c(-c4ccc(C(F)(F)F)c(C)c4)n2)OC[C@]3(C)C(N)=O)C2CC2)cc2cn(C3CC3)nc12 [Example 55] |
| > 500 nM | COc1cc(C(=O)NC[C@](O)(c2cc3c(c(-c4ccc(C)c(C(F)(F)F)c4)n2)OC[C@]3(C)C(N)=O)C2CC2)cc2cn(C3CC3)nc12 [Example 56] |
| > 500 nM | COc1cc(C(=O)NC[C@@](O)(c2cc3c(c(-c4cc(F)c(F)c(F)c4Cl)n2)OC[C@]3(C)C(N)=O)C(F)(F)F)cc2cn(C3CC3)nc12 [Example 58] |
| < 500 nM | COc1cc(C(=O)NC[C@](O)(c2cc3c(c(-c4cc(F)c(F)c(F)c4Cl)n2)OC[C@]3(C)C(N)=O)C(F)(F)F)cc2cn(C3CC3)nc12 [Example 59] |
| < 500 nM | COc1cc(C(=O)NC[C@](O)(c2cc3c(c(-c4ccc(Cl)c(Cl)c4Cl)n2)OC[C@]3(C)C(N)=O)C2CC2)cc2cn(C3CC3)nc12 [Example 60] |
| < 500 nM | COc1cc(C(=O)NC[C@](O)(c2cc3c(c(-c4cc(Cl)cc(Cl)c4Cl)n2)OC[C@]3(C)C(N)=O)C2CC2)cc2cn(C3CC3)nc12 [Example 61] |
| > 500 nM | COc1cc(C(=O)NC[C@](O)(c2cc3c(c(-c4cc(Cl)c(Cl)cc4Cl)n2)OC[C@]3(C)C(N)=O)C2CC2)cc2cn(C3CC3)nc12 [Example 62] |
| > 500 nM | COc1cc(C(=O)NC[C@](O)(c2cc3c(c(-c4ccc(F)cc4O)n2)OC[C@]3(C)C(N)=O)C2CC2)cc2cn(C3CC3)nc12 [Example 63] |
| > 500 nM | COc1cc(C(=O)NC[C@@](O)(c2cc3c(c(-c4ccc(F)cc4O)n2)OC[C@]3(C)C(N)=O)C2CC2)cc2cn(C3CC3)nc12 [Example 64] |
| > 500 nM | COc1cc(F)ccc1-c1nc([C@@](O)(CNC(=O)c2cc(OC)c3nn(C4CC4)cc3c2)C2CC2)cc2c1OC[C@]2(C)C(N)=O [Example 67] |

Continued, compound first:

| Compound | EC50 |
| --- | --- |
| COc1cc(C(=O)NC[C@](O)(c2cc3c(c(-c4cc(Cl)c(F)cc4F)n2)OC[C@]3(C)C(N)=O)C2CC2)cc2cc(C(F)(F)F)cnc12 [Example 1] | > 500 nM |
| [2H]C([2H])([2H])c1nc2c(OC)cc(C(=O)NC[C@](O)(c3cc4c(c(-c5cc(F)c(F)cc5F)n3)OC[C@]4(C)C(N)=O)C3CC3)cc2cc1Br [Example 7] | < 500 nM |
| [2H]C([2H])([2H])c1nc2c(OC)cc(C(=O)NC[C@@](O)(c3ccccc3)c3cc4c(c(-c5ccc6c(c5)OC(F)(F)O6)n3)OC[C@]4(C)C(N)=O)cc2s1 [Example 9] | < 500 nM |
| [2H]C([2H])([2H])c1nc2c(OC)cc(C(=O)NC[C@](O)(c3cc4c(c(-c5cc(Cl)c(F)cc5F)n3)OC[C@]4(C)C(N)=O)C3CC3)cc2s1 [Example 10] | < 500 nM |
| [2H]C([2H])([2H])c1nc2c(OC(F)F)cc(C(=O)NC[C@](O)(c3cc4c(c(-c5cc(Cl)c(F)cc5F)n3)OC[C@]4(C)C(N)=O)C3CC3)cc2cc1Br [Example 11] | > 500 nM |
| COc1cc(C(=O)NC[C@@](O)(c2ccc(F)cc2)c2cc3c(c(-c4cc(Cl)c(F)cc4F)n2)OC[C@]3(C)C(N)=O)cc2cn(C(F)F)nc12 [Example 13] | < 500 nM |
| [2H]C([2H])([2H])c1nc2c(OC)cc(C(=O)NC[C@@](O)(c3ccc(F)cc3)c3cc4c(c(-c5cc(Cl)c(F)cc5F)n3)OC[C@]4(C)C(N)=O)cc2s1 [Example 16] | < 500 nM |
| COc1cc(C(=O)NC[C@@](O)(c2ccc(F)cc2)c2cc3c(c(-c4cc(Cl)c(F)cc4F)n2)OC[C@]3(C)C(N)=O)cc2cc(Cl)c(C)nc12 [Example 17] | < 500 nM |
| [2H]C([2H])([2H])c1cc2cc(C(=O)NC[C@](O)(c3cc4c(c(-c5ccc(F)c(Cl)c5)n3)OC[C@]4(C)C(N)=O)C(F)(F)F)cc(OC)c2nc1C [Example 20] | > 500 nM |
| [2H]C([2H])([2H])c1nc2c(OC)cc(C(=O)NC[C@](O)(c3cc4c(c(-c5ccc(F)c(Cl)c5Cl)n3)OC[C@]4(C)C(N)=O)C3CC3)cc2cc1Br [Example 24] | < 500 nM |
| COc1cc(C(=O)NC[C@@](O)(c2ccc(F)cc2)c2cc3c(c(-c4ccc5c(c4Cl)OC(F)(F)O5)n2)OC[C@]3(C)C(N)=O)cc2cc(C(F)(F)F)cnc12 [Example 26] | > 500 nM |
| [2H]C([2H])([2H])c1nc2c(OC)cc(C(=O)NC[C@@](O)(c3ccc(F)cc3)c3cc4c(c(-c5ccc6c(c5Cl)OC(F)(F)O6)n3)OC[C@]4(C)C(N)=O)cc2s1 [Example 27] | < 500 nM |
| [2H]C([2H])([2H])c1cc2cc(C(=O)NC[C@](O)(c3cc4c(c(-c5cc(F)c(F)cc5F)n3)OC[C@]4(C)C(N)=O)C3CC3)cc(OC)c2nc1C([2H])([2H])[2H] [Example 28] | < 500 nM |
| [2H]C([2H])([2H])c1cc2cc(C(=O)NC[C@](O)(c3cc4c(c(-c5cc(Cl)c(F)cc5F)n3)OC[C@]4(C)C(N)=O)C3CC3)cc(OC)c2nc1C([2H])([2H])[2H] [Example 29] | < 500 nM |
| [2H]c1nc2c(OC)cc(C(=O)NC[C@](O)(c3cc4c(c(-c5cc(F)c(F)cc5F)n3)OC[C@]4(C)C(N)=O)C3CC3)cc2cc1Br [Example 30] | < 500 nM |
| C[C@]1(C(N)=O)COc2c1cc([C@@](O)(CNC(=O)c1cc(Cl)c3nn(C4CC4)cc3c1)C1CC1)nc2-c1ccc2c(c1Cl)OC(F)(F)O2 [Example 35] | < 500 nM |
| COc1cc(C(=O)NC[C@@](O)(c2ccc(F)cc2)c2cc3c(c(-c4ccc(F)c(Cl)c4Cl)n2)OC[C@]3(C)C(N)=O)cc2cn(C(F)F)nc12 [Example 42] | < 500 nM |
| COc1cc(C(=O)NC[C@@](O)(c2ccc(F)cc2)c2cc3c(c(-c4ccc(F)c(Cl)c4Cl)n2)OC[C@]3(C)C(N)=O)cc2cc(Cl)c(C)nc12 [Example 44] | < 500 nM |
| COc1cc(C(=O)NC[C@@](O)(c2ccc(F)cc2)c2cc3c(c(-c4ccc(F)c(Cl)c4Cl)n2)OC[C@]3(C)C(N)=O)cc2cc(C3CC3)nn12 [Example 45] | < 500 nM |
| COc1cc(C(=O)NC[C@](O)(c2cc3c(c(-c4cc(F)c(F)cc4F)n2)OC[C@]3(C)C(N)=O)C2CC2)cc2cc(C(F)(F)F)cnc12 [Example 46] | > 500 nM |
| COc1cc(C(=O)NC[C@](O)(c2cc3c(c(-c4ccc5c(c4Cl)OC(F)(F)O5)n2)OC[C@]3(C)C(N)=O)C(F)(F)F)cc2cn(C3CC3)nc12 [Example 52] | > 500 nM |
